{"source": "patent US10350271B2", "about": "“Lipidated peptides for lowering blood glucose” (USTAV ORGANICKE CHEMIE A BIOCHEMIE AKADEMIE VED CR, V.V.I., priority 2014, dated 2019)", "key": {"[1]": {"molecular_target": "T1, human PrRP receptor GPR10 (Homo sapiens, UniProt P49683)", "T1 construct": "host or cells: CHO cells", "T1 sequence (P49683 1-370)": "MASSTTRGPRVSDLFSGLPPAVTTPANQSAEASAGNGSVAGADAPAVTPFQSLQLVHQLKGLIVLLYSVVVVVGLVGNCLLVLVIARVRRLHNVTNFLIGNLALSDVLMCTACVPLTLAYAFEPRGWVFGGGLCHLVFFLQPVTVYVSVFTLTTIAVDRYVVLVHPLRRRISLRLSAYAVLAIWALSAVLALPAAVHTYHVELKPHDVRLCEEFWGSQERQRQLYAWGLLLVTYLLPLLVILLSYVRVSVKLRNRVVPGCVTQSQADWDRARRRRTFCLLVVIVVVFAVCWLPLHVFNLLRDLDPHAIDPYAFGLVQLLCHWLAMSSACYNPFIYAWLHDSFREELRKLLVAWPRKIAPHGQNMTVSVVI", "test": "Competitive binding in CHO cells transfected with human GPR10 (human 125I-PrRP31)", "method_in_brief": "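GPR10-transfected CHO cells (40-80 thousand/well) incubated 60 min at room temperature with 5×10^-11 mol·l^-1 human 125I-PrRP31 and unlabeled analog at 10^-11 to 10^-4 mol·l^-1 in Tris binding buffer pH 7.4. Cells solubilized in 0.1 mol/l NaOH, γ-counted; one-site nonlinear regression fit.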"}, "[2]": {"system": "obese diabetic monosodium-glutamate (MSG) mice", "test": "IPGTT after 10 days administration to obese diabetic MSG mice", "assay_type": "in vivo", "settings": "5 mg/kg SC twice a day for 10 days, vs saline", "method": "Mice were subjected to a 10-day food intake experiment. […] After 10 days of treatment, mice were fasted overnight and IPGTT was performed. After initial blood glucose measurement, 2 g/kg glucose solution was administered intraperitoneally (IP).\nObese mice were created using MSG. L-glutamic acid sodium salt hydrate (Sigma, St. Louis, USA) was subcutaneously (SC) administered to newborn male mice, at a dose of 4 mg/g body weight, daily from postnatal days 2 to 8 to induce obesity. The MSG treated mice used for experiments were 24 weeks old. Age related mice were used as controls. Obese and control mice were placed into separate cages with free access to food and water. The following week, mice were subjected to a 10-day food intake experiment. […] Consumption of the St-1 diet and the body weight of the mice were simultaneously followed. After 10 days of treatment, mice were fasted overnight and IPGTT was performed. After initial blood glucose measurement, 2 g/kg glucose solution was administered IP.\nBlood glucose was then measured at 15, 30, 60, 120 and 180 min post injection as described above."}, "[3]": {"system": "ZDF diabetic rats", "test": "21 days repeated administration in diabetic ZDF rats (food intake, OGTT, metabolic parameters)", "assay_type": "in vivo", "method": "(§1) Rats were subjected to a 21-day food intake experiment. ZDF rats were IP injected with either phosphate-buffered saline pH6 (control) or compound 43 or 52 at a dose of 1 and 5 mg/kg (n=8), twice a day for 21 days. After 21 days of treatment, rats were fasted overnight and OGTT was performed. After initial blood glucose measurement, 2 g/kg glucose solution was administered by oral gavage. Blood glucose was then measured at 15, 30, 60, 90, 120 and 180 min.\nNMRI mice, C57BL/6 mice, and Wistar rats (AnLab, Prague, Czech Republic) were housed in a temperature of 23° C. and a daily cycle of 12 h light and dark (light from 6:00). They were given ad libitum water and a standard chow diet that contained 25, 9 and 66% of calories of protein, fat and carbohydrate respectively. Energy content of the feed was 3.4 kcal/g (St-1, Mlýn Kocanda, Czech Republic). Db/db mice and their controls (C57BL/6 background) were obtained from Taconic (Denmark), housed under the same conditions as described above, and fed by Altromin (Taconic, Denmark). ZDF-Lepr^fa/Crl, diabetic fa/fa male rats were obtained from Charles River (France), housed under same conditions as described above, and fed with a Purina 5008 diet (IPS Product Supplies Limited, UK). All experiments followed the ethical guidelines for animal experiments and the law of the Czech Republic Nr. 246/1992.\nThe ZDF rats were treated with vehicle or analogs 43 and 52 (1 and 5 mg/kg IP) dissolved in phosphate buffered saline, pH 6, twice daily for 21 days and sacrificed on day 22. Food intake was measured daily up to day 22. Leptin, insulin, cholesterol and HbA1c levels were measured on day 21. Glucose tolerance test (OGTT) was also performed on day 21.\nas §1, with “min. […] The statistical significance, denoted by the asterisk (*), was *P<0.05.” for “min.”"}, "[4]": {"settings": "ZDF rats, 1 mg/kg IP twice daily"}, "[5]": {"settings": "ZDF rats, 5 mg/kg IP twice daily"}, "[6]": {"settings": "ZDF rats, day 21, 1 mg/kg IP twice daily"}, "[7]": {"settings": "ZDF rats, day 21, 5 mg/kg IP twice daily"}}, "note": "Marks after values point to notes of the source that are not given here."}
{"smiles": "CCCCCCCCCCCCCCCC(=O)N[C@@H](CO)C(=O)N[C@@H](CCCNC(=N)N)C(=O)N[C@H](C(=O)N[C@@H](Cc1c[nH]cn1)C(=O)N[C@@H](CCCNC(=N)N)C(=O)N[C@@H](Cc1c[nH]cn1)C(=O)N[C@@H](CO)C(=O)N[C@@H](CCSC)C(=O)N[C@@H](CCC(=O)O)C(=O)N[C@H](C(=O)N[C@@H](CCCNC(=N)N)C(=O)N[C@H](C(=O)N1CCC[C@H]1C(=O)N[C@@H](CC(=O)O)C(=O)N[C@H](C(=O)N[C@@H](CC(N)=O)C(=O)N1CCC[C@H]1C(=O)N[C@@H](C)C(=O)N[C@@H](Cc1c[nH]c2ccccc12)C(=O)N[C@@H](Cc1ccc(O)cc1)C(=O)N[C@@H](C)C(=O)N[C@@H](CO)C(=O)N[C@@H](CCCNC(=N)N)C(=O)NCC(=O)N[C@H](C(=O)N[C@@H](CCCNC(=N)N)C(=O)N1CCC[C@H]1C(=O)N[C@H](C(=O)NCC(=O)N[C@@H](CCCNC(=N)N)C(=O)N[C@@H](Cc1ccccc1)C(N)=O)C(C)C)[C@@H](C)CC)[C@@H](C)CC)[C@@H](C)O)[C@@H](C)CC)[C@@H](C)O", "note": "[Analog 43]", "values": [{"measurement": "% of PrRP31, GPR10 human receptor transfected in CHO cells", "setting": "[1]; affinity relative to PrRP31", "value": 90, "unit": "%"}, {"measurement": "Displacement of human 125I-PrRP binding", "setting": "[1]; human GPR10 receptor", "value": "nmol·l^−1 range"}, {"measurement": "IPGTT area under the curve through 180 min", "setting": "[2]", "value": "substantially lower"}, {"measurement": "IPGTT blood glucose levels", "setting": "[2]", "value": "lower"}, {"measurement": "Food intake in free fed ZDF diabetic rats", "setting": "[3]; 5 mg/kg IP twice daily, vs vehicle", "value": "significantly lowered"}, {"measurement": "Cumulative food intake Day 1", "setting": "[3]; [4]", "value": "40.8 ± 2.1", "unit": "g"}, {"measurement": "Cumulative food intake Day 1-7", "setting": "[3]; [4]", "value": "299.9 ± 8.9", "unit": "g"}, {"measurement": "Cumulative food intake Day 1-14", "setting": "[3]; [4]", "value": "572.5 ± 15.5", "unit": "g"}, {"measurement": "Cumulative food intake Day 1-21", "setting": "[3]; [4]", "value": "817.7 ± 22.1", "unit": "g"}, {"measurement": "Cumulative food intake Day 1", "setting": "[3]; [5]", "value": 34.2, "unit": "g"}, {"measurement": "Cumulative food intake Day 1-7", "setting": "[3]; [5]", "value": "273.3 ± 20.4** g"}, {"measurement": "Cumulative food intake Day 1-14", "setting": "[3]; [5]", "value": "528.9 ± 36.0** g"}, {"measurement": "Cumulative food intake Day 1-21", "setting": "[3]; [5]", "value": 768.2, "unit": "g"}, {"measurement": "OGTT blood glucose levels", "setting": "[3]; ZDF rats, 5 mg/kg twice daily for 21 days", "value": "significant lowering"}, {"measurement": "Blood cholesterol levels", "setting": "[3]; ZDF rats, 1 and 5 mg/kg twice daily, vs controls", "value": "significantly lowered"}, {"measurement": "Cholesterol", "setting": "[3]; [6]", "value": "3.10 ± 0.12* mmol/l"}, {"measurement": "Insulin", "setting": "[3]; [6]", "value": "267.69 ± 40.69", "unit": "pmol/L"}, {"measurement": "Leptin", "setting": "[3]; [6]", "value": "13297 ± 921", "unit": "pg/mL"}, {"measurement": "Cholesterol", "setting": "[3]; [7]", "value": "2.91 ± 0.12** mmol/l"}, {"measurement": "Insulin", "setting": "[3]; [7]", "value": "271.84 ± 34.00", "unit": "pmol/L"}, {"measurement": "Leptin", "setting": "[3]; [7]", "value": "16560 ± 4843", "unit": "pg/mL"}]}
